# Results reported in US20210179598A1, “SELECTIVE JAK2 INHIBITOR AND APPLICATION THEREOF” (EAST CHINA UNIVERSITY OF SCIENCE AND TECHNOLOGY, priority 2018, published 2021).
# Where two headings read alike, the source gives them in different places.
# How the values were obtained:
# H3122 cells = assay: CCK-8 cell proliferation detection, H3122 cells; format: cell-based; conditions: Homo sapiens, NCI-H3122; Table 2; CCK-8, 72 hrs
# Text: (§1) WST-8 (chemical name: 2-(2-methoxy-4-nitrophenyl)-3-(4-nitrophenyl)-5-(2,4-disulfo benzene)-2H-tetrazolium monosodium), which is reduced to a highly water-soluble yellow formazan product (Formazan dye) by the dehydrogenase in cells under the action of the electron carrier dimethyl 1-methoxy-5-methylphenazinium sulfate (1-Methoxy PMS). The amount of the produced formazan is proportional to the number of living cells. Therefore, the survival rate of cells can be calculated indirectly by measuring the absorbance at 450 nm. The half inhibition rate of the compound on the proliferation of H3122, SET2, HEL cells can be determined by the CCK-8 method.
# (§2) RPIM medium containing 10% FBS was used to culture cells (100 μL per well), and 3500 cells were inoculated into a 96-well plate, and placed in a 37° C., 5% CO2 incubator for 24 h, until 50%-70% of the cell confluence was achieved. Drugs with different concentration gradients were added respectively, and incubated for another 72 hrs. […] And finally the absorption value of each well was measured at 450 nm.
# (§3) NOTE: HEL, SET-2, H3122 cells were purchased from ATCC (American type culture collection), Z′-LYTETM kinase assay platform was purchased from Invitrogen, HTRF KinEASETM-TK was purchased from Cisbio, and Cell Counting Kit-8 was purchased from Beyotime.
# ALK = ALK (Homo sapiens, UniProt Q9UM73); assay: ALK kinase IC50 test (HTRF); format: biochemical; conditions: Table 2
# Chain of ALK (Q9UM73 19-1620, species assumed): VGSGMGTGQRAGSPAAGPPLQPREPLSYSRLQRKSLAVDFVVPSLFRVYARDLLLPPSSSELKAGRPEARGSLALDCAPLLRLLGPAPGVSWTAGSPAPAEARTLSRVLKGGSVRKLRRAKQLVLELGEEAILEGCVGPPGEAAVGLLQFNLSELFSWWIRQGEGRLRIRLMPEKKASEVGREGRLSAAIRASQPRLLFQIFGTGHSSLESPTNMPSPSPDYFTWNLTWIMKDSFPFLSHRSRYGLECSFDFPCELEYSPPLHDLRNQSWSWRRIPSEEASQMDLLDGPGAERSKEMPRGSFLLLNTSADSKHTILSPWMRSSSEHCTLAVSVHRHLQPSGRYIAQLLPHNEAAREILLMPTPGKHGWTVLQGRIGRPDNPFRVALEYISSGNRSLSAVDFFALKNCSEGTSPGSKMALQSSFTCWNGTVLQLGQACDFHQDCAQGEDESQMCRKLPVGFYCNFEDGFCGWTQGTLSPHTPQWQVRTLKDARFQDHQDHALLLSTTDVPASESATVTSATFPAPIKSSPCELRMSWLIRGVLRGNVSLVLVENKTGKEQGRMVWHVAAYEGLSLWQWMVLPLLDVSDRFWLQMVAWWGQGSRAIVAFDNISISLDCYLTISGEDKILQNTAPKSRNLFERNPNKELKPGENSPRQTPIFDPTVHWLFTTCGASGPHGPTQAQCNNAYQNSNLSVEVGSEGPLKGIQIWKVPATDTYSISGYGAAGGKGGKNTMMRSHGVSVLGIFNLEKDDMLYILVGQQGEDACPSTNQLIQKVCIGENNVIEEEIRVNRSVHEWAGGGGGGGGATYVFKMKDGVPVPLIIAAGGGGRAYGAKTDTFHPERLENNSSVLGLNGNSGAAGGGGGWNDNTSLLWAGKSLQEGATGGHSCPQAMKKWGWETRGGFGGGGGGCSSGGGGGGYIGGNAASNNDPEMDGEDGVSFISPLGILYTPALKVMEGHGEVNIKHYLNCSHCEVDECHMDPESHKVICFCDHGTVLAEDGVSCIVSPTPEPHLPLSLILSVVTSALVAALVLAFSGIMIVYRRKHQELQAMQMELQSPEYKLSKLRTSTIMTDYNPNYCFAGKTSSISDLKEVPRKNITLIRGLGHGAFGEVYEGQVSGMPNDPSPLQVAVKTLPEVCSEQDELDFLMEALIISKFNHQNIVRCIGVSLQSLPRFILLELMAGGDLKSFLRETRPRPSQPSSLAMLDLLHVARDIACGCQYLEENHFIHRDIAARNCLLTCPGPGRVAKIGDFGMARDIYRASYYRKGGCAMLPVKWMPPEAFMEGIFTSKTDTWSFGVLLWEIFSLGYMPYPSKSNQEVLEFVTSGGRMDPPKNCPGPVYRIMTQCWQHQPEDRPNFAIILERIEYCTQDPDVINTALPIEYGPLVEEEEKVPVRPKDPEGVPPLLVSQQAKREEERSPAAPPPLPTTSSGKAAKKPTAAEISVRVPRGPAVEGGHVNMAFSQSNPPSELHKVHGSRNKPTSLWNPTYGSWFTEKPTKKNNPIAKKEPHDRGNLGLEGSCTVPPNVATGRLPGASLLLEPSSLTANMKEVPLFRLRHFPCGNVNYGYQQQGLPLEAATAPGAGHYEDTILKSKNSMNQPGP
# Text: According to HTRF method, the peptide substrate was labeled with a biotin, which can specifically bind to XL665-labeled streptavidin. When the kinase adds a phosphate group to the polypeptide substrate in the first step, its Eu-labeled specific phosphorylation antibody can recognize and bind to it. In this way, in the second step of detection, a complex of XL665-labeled streptavidin, phosphorylated peptide substrate and Eu-labeled phosphorylation antibody can be formed. Since the distance between XL665 and Eu is short, FRET can be formed. On the other hand, Eu has a relatively long fluorescence half-life and can be applied to time-resolved fluorescence detection.
# 10 μL of reaction system, 4 μL test compound, 2 μL kinase, 2 μL biotin-labeled substrate and 2 μL ATP, was added into a 384-well plate, shaken for 30 s, and incubated at room temperature for 1 hour. 5 μL of Eu-labeled phosphorylation site-specific antibody and 5 μL of XL665-labeled streptavidin were added. The reaction system was shaken for 30 s, and incubated at room temperature for 1 hour. A microplate reader was used to detect the fluorescence signal. The inhibition rates of the compounds under 8 concentration gradients were determined, and the IC50 value of each compound was calculated by fitting curve with Origin 8.0. […] Each experiment was performed in triplicate.
# as §3
# HEL (JAK2 V617F) cells = assay: CCK-8 cell proliferation detection, HEL cells; format: cell-based; conditions: Homo sapiens, Table 2, CCK-8, 72 hrs
# Text: as §1, §2, §3
# SET 2 (JAK2 V617F) cells = assay: CCK-8 cell proliferation detection, SET2 cells; format: cell-based; conditions: Homo sapiens, SET-2; Table 2; CCK-8, 72 hrs
# Text: as §1, §2, §3
# JAK2 = JAK2 (Homo sapiens, UniProt O60674); assay: JAK2 kinase activity test at molecular level (Z'-LYTE FRET); format: biochemical
# Chain of JAK2 (O60674 whole entry): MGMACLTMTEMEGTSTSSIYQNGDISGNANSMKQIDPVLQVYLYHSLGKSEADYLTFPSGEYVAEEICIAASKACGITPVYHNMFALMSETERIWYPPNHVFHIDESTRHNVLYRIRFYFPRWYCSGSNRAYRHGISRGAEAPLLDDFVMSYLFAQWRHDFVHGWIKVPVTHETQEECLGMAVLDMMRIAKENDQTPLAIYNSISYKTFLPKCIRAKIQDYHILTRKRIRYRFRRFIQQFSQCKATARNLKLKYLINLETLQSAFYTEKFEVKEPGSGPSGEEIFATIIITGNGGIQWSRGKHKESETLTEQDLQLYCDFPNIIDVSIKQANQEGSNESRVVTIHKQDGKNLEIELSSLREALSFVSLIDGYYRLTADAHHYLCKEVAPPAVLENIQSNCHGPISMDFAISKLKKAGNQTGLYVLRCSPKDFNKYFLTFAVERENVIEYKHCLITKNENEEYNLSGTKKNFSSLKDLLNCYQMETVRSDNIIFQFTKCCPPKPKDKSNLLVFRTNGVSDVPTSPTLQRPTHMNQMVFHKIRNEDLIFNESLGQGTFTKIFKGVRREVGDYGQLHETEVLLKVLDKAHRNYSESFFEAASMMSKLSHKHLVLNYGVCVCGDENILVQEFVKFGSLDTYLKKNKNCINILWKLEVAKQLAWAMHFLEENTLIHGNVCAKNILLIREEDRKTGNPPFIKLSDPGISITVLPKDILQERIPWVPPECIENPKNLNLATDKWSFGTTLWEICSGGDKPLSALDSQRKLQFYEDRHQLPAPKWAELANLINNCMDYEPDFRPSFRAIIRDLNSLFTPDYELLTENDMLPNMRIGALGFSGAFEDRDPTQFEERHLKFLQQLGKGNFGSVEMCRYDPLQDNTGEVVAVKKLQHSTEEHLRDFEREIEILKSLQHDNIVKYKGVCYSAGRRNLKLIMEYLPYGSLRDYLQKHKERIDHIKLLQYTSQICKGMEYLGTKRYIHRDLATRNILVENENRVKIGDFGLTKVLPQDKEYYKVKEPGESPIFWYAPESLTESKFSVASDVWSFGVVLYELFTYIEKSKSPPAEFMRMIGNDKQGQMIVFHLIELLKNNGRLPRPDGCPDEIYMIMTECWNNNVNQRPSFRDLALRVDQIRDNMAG
# Procedure: JAK2 can catalyze the transfer of a phosphate group of adenosine triphosphate (ATP) to a polypeptide substrate, and the polypeptide substrate is labeled with two fluorescent groups, coumarin and fluorescein. […] Therefore, the inhibition rates of different compounds can be calculated by measuring the ratio of enzyme-catalyzed substrate phosphorylation percentages.
# 10 μL reaction system, 2.5 μL test compound, 5 μL kinase/peptide substrate mixture and 2.5 μL ATP solution were added into a 384-well plate, shaken for 30 s, and incubated at room temperature for 1 hour. 5 μL of proteolytic enzyme and 15 μL of the reaction system were added and shaken for 30 s and incubated at room temperature for 1 h. 5 μL of stop reagent was added, and the reaction system with a total volume of 20 μL was shaken for 30 seconds. A microplate reader was used to detect the fluorescence signal. […] The inhibition rates of the compound at 7 concentration gradients were determined, and the IC50 value for each compound was calculated by fitting curve with Origin 8.0.
# as §3
# [1] = Table 1, read-out: JAK2 kinase activity IC50
IC50 (H3122 cells),IC50 (ALK),melting point,IC50 (JAK2; [1]),"IC50 (JAK2; Table 2, read-out: JAK2 IC50)",Compound,IC50 (HEL (JAK2 V617F) cells),IC50 (SET 2 (JAK2 V617F) cells)
4.83 ± 0.082 µM,0.423 µM,189.8 to 191.3 °C,0.0265 ± 0.0265 µM,,"COc1ccc(F)c(Cl)c1C(C)Oc1cc(-c2cnn(C3CCNCC3)c2)cnc1N (centres unmarked) [WWQ-175, 4-{3-[1-(2-chloro-3-fluoro-6-methoxyphenyl)ethoxy]-2-aminopyridine}pyrazol-1-piperidine]",11.3 µM,0.916 µM
6.32 ± 0.128 µM,> 10 µM,158.8 to 159.8 °C,3.05 ± 0.204 µM,,"C[C@@H](Oc1cc(-c2cccnc2)cnc1N)c1c(Cl)ccc(F)c1Cl [WWQ-189, (R)-5-[1-(2,6-dichloro-3-fluorophenyl)ethoxy]-[3,3′-dipyridine]-6-amine]",13.2 µM,11.1 µM
1.17 ± 0.093 µM,3.44 µM,197.8 to 198.5 °C,0.804 ± 0.009 µM,,"C[C@@H](Oc1cc(-c2ccc(N3CCNCC3)nc2)cnc1N)c1c(Cl)ccc(F)c1Cl [WWQ-191, (R)-5-[1-(2,6-dichloro-3-fluorophenyl)ethoxy]-6′-piperazin-[3,3′-dipyridine]-6-amine]",30.1 µM,3.22 µM
20.7 ± 0.394 µM,> 10 µM,192.2 to 193.4 °C,3.4 ± 0.431 µM,3.4 ± 0.431 µM,"CC(Oc1cc(-c2cnn(C3CCNCC3)c2)cnc1N)C1CCCCC1 (centres unmarked) [WWQ-197, 4-{3-[1-cyclohexaneethoxy]-2-aminopyridine}pyrazol-1-piperidine]",12.9 µM,7.02 µM
> 100 µM,> 10 µM,,,1.12 ± 0.014 µM,CC(Oc1cc(-c2nccs2)cnc1N)c1cc(F)ccc1Cl (centres unmarked) [XFL-169],15.9 µM,8.17 µM
11.9 ± 0.31 µM,> 10 µM,,,1.84 ± 0.025 µM,CC(Oc1cc(-c2cn(C)cn2)cnc1N)c1cc(F)ccc1Cl (centres unmarked) [XFL-171],13.5 µM,4.47 µM
> 100 µM,7.78 µM,,,0.931 ± 0.032 µM,CC(Oc1cc(-n2cccn2)cnc1N)c1cc(F)ccc1Cl (centres unmarked) [XFL-179],> 50 µM,> 50 µM

# Second part, the compound before the results:
Compound,IC50 (H3122 cells),IC50 (ALK),melting point,IC50 (JAK2; [1]),"IC50 (JAK2; Table 2, read-out: JAK2 IC50)",IC50 (HEL (JAK2 V617F) cells),IC50 (SET 2 (JAK2 V617F) cells)
"C[C@@H](Oc1cc(-c2cncc(N3CCNCC3)c2)cnc1N)c1c(Cl)ccc(F)c1Cl [WWQ-1093-23, (R)-5-[1-(2,6-dichloro-3-fluorophenyl)ethoxy]-5′-piperazine-[3,3′-dipyridine]-6-amine]",1.54 ± 0.034 µM,2.44 µM,189.7 to 190.6 °C,0.119 ± 0.0082 µM,,10.4 µM,2.89 µM
"C[C@@H](Oc1cc(-c2cnn(C3CCNCC3)c2)cnc1N)c1ccccc1 [WWQ-1093-25, 4-[3-(1-phenylpropoxy)-2-aminopyridine]pyrazole-1-piperidine]",3.52 ± 0.102 µM,5.43 µM,194.2 to 195 °C,0.215 ± 0.0124 µM,,13.7 µM,4.61 µM
C[C@@H](Oc1cc(-c2cnn(C3CCOCC3)c2)cnc1N)c1c(Cl)ccc(F)c1Cl [WWQ-1093-27],7.18 ± 0.838 µM,0.855 µM,188.1 to 190.4 °C,0.0647 ± 0.0004 µM,,8.05 µM,1.68 µM
COc1ccc(F)cc1C(C)Oc1cc(-c2cnn(C3CCNCC3)c2)cnc1N (centres unmarked) [WWQ-1093-71],< 0.5 µM,1.33 µM,191.6 to 192.3 °C,0.003 ± 0.0001 µM,0.003 ± 0.0001 µM,9.97 µM,0.616 µM
"C[C@@H](Nc1cc(-c2cnn(C3CCNCC3)c2)cnc1N)c1c(Cl)ccc(F)c1Cl [WWQ-1093-73, 4-{3-[1-(2,6-dichloro-3-fluorophenyl)ethylamino]-2-aminopyridine}pyrazole-1-piperidine]",4.366 ± 0.005 µM,3.45 µM,191.5 to 191.7 °C,0.126 ± 0.0053 µM,,13.4 µM,2.2 µM
"CC(Oc1cc(-c2ccccc2)cnc1N)c1cc(F)ccc1Cl (centres unmarked) [WWQ-1093-75, 3-(1-(2-chloro-5-fluorophenyl)ethoxy)-2-amino-5-phenylpyridine]",14.4 ± 4.21 µM,> 10 µM,199 to 199.8 °C,0.461 ± 0.002 µM,0.461 ± 0.002 µM,24.5 µM,33.2 µM
"CC(Oc1cc(-c2cn[nH]c2)cnc1N)c1cc(F)ccc1Cl (centres unmarked) [WWQ-1093-81, 3-(1-(2-chloro-5-fluorophenyl)ethoxy)-2-amino-5-pyrazolepyridine]",2.55 ± 0.16 µM,0.334 µM,183.8 to 184.6 °C,0.016 ± 0.0001 µM,0.016 ± 0.0001 µM,4.7 µM,5.55 µM
CC(Oc1cc(-c2ccccc2)cnc1N)c1c(Cl)ccc(F)c1Cl (centres unmarked) [WWQ-1093-83],6.06 ± 0.081 µM,> 10 µM,160.4 to 161.4 °C,,> 10 µM,11.3 µM,11.6 µM
CC(Oc1cc(-c2ccc(N3CCNCC3)cc2)cnc1N)c1cc(F)ccc1Cl (centres unmarked) [WWQ-1093-85],1.14 ± 0.012 µM,0.498 µM,191.1 to 193.7 °C,0.037 ± 0.003 µM,0.037 ± 0.003 µM,35.8 µM,8.26 µM
CC(Oc1cc(-c2ccc(C3CCNCC3)cc2)cnc1N)c1cc(F)ccc1Cl (centres unmarked) [WWQ-1093-87],> 10 µM,0.545 µM,189.8 to 191 °C,0.048 ± 0.008 µM,0.048 ± 0.008 µM,35.4 µM,9.7 µM
CC(Oc1cc(-c2cccc(N3CCNCC3)c2)cnc1N)c1cc(F)ccc1Cl (centres unmarked) [WWQ-1093-89],< 0.5 µM,0.334 µM,190.8 to 191.6 °C,0.027 ± 0.002 µM,0.027 ± 0.002 µM,8.43 µM,2.26 µM
CC(Oc1cc(-c2cccc(C3CCNCC3)c2)cnc1N)c1cc(F)ccc1Cl (centres unmarked) [WWQ-1093-91],0.956 µM,1.25 µM,192.1 to 193.4 °C,0.035 ± 0.001 µM,0.035 ± 0.001 µM,8.77 µM,2.36 µM
